Where a name gives a salt, the structure may show the parent alone.
What was measured:
[1] = system: anti-TSHR antibodies (IgG class); experiment: Adenoviral animal model for GD: detection of anti-TSHR antibodies by ELISA; assay type: in vivo, DR3tg mice
Protocol: (§1) DR3tg mice were injected subcutaneously in the flank region with 22.5 pmol, 225 pmol and 2250 pmol ATX-GD-59 or control treatment on days −15, −13 and −11 respectively, followed by 3 injections of 22.5 nmol ATX-GD-59 (top dose/peptide) or control treatment on days −8, −6 and −4 (dose escalation schedule). Alterations in top doses, and correspondingly in dose escalation doses, are indicated per experiment.
Anti-TSHR antibodies (IgG class) against purified recombinant TSHR-ECD (Chesapeake-Perl) were measured using ELISA. […] The signal was developed with tetramethylbenzidine (TMB).
(§2) Alterations in top doses, and correspondingly in dose escalation doses, are indicated per experiment. […] New osmotic pumps were implanted after 4 weeks. […] On day 0, mice were immunized by intramuscular injection with 10^9 or 10^10 Ad-TSHR viral particles and the immunization was repeated three weeks later. […] Mice were euthanized 5 weeks after the first immunization to obtain blood, thyroid and spleen samples. TSHR-induced splenocyte proliferation, cytokine secretion and anti-TSHR antibody levels were assessed as described below.
Anti-TSHR antibodies (IgG class) against purified recombinant TSHR-ECD (Chesapeake-Perl) were measured using ELISA. […] The signal was developed with tetramethylbenzidine.
The signal was developed with tetramethylbenzidine (TMB).
Alterations in top doses, and correspondingly in dose escalation doses, are indicated per experiment. On day 0, mice were immunised by intramuscular injection with 10^9 Ad-TSHR or Ad-LacZ viral particles and the immunisation was repeated three weeks later. Five weeks after the first immunisation, blood and spleens were collected.

[2] = system: TSHR-specific splenocyte proliferation; experiment: Adenoviral animal model for GD: TSHR-specific splenocyte proliferation; assay type: in vivo, DR3tg mice; conditions: 10^9 Ad-TSHR; ATX-GD-459 15 nmol top dose; MMI 500 μg daily s.c. pump; to be interpreted with caution
Protocol: as §1, §2

Total thyroxine (T4) = experiment: Detection of hyperthyroidism: total thyroxine (T4) in serum by ELISA; assay type: in vivo, DR3tg mice
Protocol: Total thyroxine (T4) was measured in undiluted mouse serum (10 μl) using the CBI mouse/rat thyroxine ELISA kit (Calbiotech, Spring Valley, Calif., USA) according to the manufacturer's instructions. T4 values were computed from standards in the kit and expressed as μg/dl.
as §2, with “experiment. Starting on the day of the first peptide treatment until termination of the experiment, mice were treated either MMI or propranolol.” for “experiment.”
Total thyroxine (T4) was measured in undiluted mouse serum (10 μl) using the CBI mouse/rat thyroxine ELISA kit (Calbiotech, Spring Valley, Calif., USA) according to the manufacturer's instructions. T4 values were computed from standards in the kit and expressed as μg/dl. In addition to serum T4 determinations, thyroid histology was used as a parameter for hyperthyroidism. Thyroid glands were fixed in 10% neutral buffered formalin (pH 7.5), processed to sections and stained with hematoxylin and eosin.

[3] = Propranolol levels in mouse plasma by LC-MSMS; assay type: in vivo, DR3tg mice; conditions: 10 mg/kg/day IP; 60-90 minutes post-dose; weeks 0 and 5; FIG. 18
Protocol: Blood samples were collected between 60 and 90 minutes post-dose and individual plasma levels compared between W0 and W5.

[4] = system: TSHR-induced T cell proliferation; experiment: Ex vivo tolerization experiment: TSHR-induced proliferation of LN cells and splenocytes after peptide pretreatment; assay type: in vivo, DR3tg mice; conditions: vs control-treated; s.c. dose escalation schedule; top dose 5D-K1 100 μg, 9B-N 33 μg, ATX-GD-59 15 nmol/peptide; 10 days after parental peptide/CFA immunization
Protocol: DR3tg mice were injected subcutaneously in the flank region with 0.1 μg, 1 μg and 10 μg peptides on days −15, −13 and −11 respectively, followed by 3 injections of 100 μg (top dose/peptide) soluble peptide (5D-K1 or 9B-N) on days −8, −6 and −4 (dose escalation schedule). The ATX-GD-59 is an equimolar mix of the peptides 5D-K1 (SEQ ID NO:1) and 9B-N (SEQ ID NO:2) and the top dose mentioned (nmol) is per peptide in the cocktail. A peptide dose of 100 ug corresponds to ˜45 nmol as both systems been used in different experiments. The peptides were administered subcutaneous in PBS. Alterations in top doses/peptide, and correspondingly in dose escalation doses, are indicated per experiment. On day 0, the mice were immunized subcutaneously in the base of the tail with 50 μg corresponding to the parental peptide (non-modified 5D and/or 9B) emulsified in Complete Freund adjuvants (CFA; 2 mg/ml Mycobacterium tuberculosis H37RA (Difco Laboratories, Michigan, US) in Incomplete Freund adjuvant (Difco)) (50 μg peptide in 100 μL CFA (100 μg H37RA)/injection). Ten days after immunization, draining LN and spleens were harvested. LN cells and splenocytes were isolated and cultured in X-vivo 15 medium supplemented with 2 mM L-glutamine, 50 U/mL penicillin and 50 U/mL streptomycin (all Lonza, Verviers, Belgium) in 96-well flat bottom plates. To investigate antigen-induced cell proliferation, 0.5×10^6 cells/well were cultured (200 μL/well) for 72 hours with TSHR-ECD in a concentration range of 0-25 μg/mL or with 12.5 μg/mL purified protein derivative (PPD; immunisation control; Statens serum institut, Copenhagen, Denmark). After 72 hours in a 37° C. incubator with 5% CO2, 60 μL of cell supernatant was harvested and frozen. 20 μL/well of tritiated thymidine (PerkinElmer, Zaventem, Belgium) were then added to the cells to obtain a final concentration of 1 μCi/well. The cells were incubated at 37° C. and 5% CO2, and after 16 h, plates were frozen. Thawed plates were harvested and read on a β-counter (Wallac 1450 Microbeta Trilux Liquid Scintillation Counter) to assess cell proliferation.
DR3tg or DR4tg mice were injected subcutaneously in the flank region with 0.1 μg, 1 μg and 10 μg of peptide on days −15, −13 and −11 respectively, followed by 3 injections of 33, 75 or 100 μg peptide (depending on top dose, see Figure legends) on days −8, −6 and −4 (dose escalation schedule). Alterations in top doses, and correspondingly in dose escalation doses, are indicated per experiment. On day 0, the mice were immunised subcutaneously in the base of the tail with 50 μg antigen (non-modified parental 15-mer peptide) emulsified in CFA (peptide/CFA). […] Thawed plates were harvested and read with β-counter (Wallac 1450 Microbeta Trilux Liquid Scintillation Counter) to assess the cell proliferation.

[5] = system: Antigen-specific T cell hybridomas with fixed or not fixed VAVY or BM14 cells (APCs); experiment: Antigen Processing Independent Presentation System (APIPS) assay; assay type: cell-based; conditions: 25 μg/ml peptide; fixed or fresh VAVY (DR3) or BM14 (DR4) APCs; 48 h; IL-2 ELISA
Protocol: 5×10^4 T cell hybridoma clones specific for RNB-5 (clone 50+35) or RNB-4 (clone 164+455) and TSHR were cultured in presence of TSHR and RNB-5D-K1 or RNB-4K-GKK in combination with 5×10^4 human DR3 expressing antigen presenting B cells (VAVY) (clone 50) or with DR4 expressing antigen presenting B cells (BM14) (Clone 35, 164, 455). Antigen-Presenting Cells (APC) were viable or previously fixed with 0.5% paraformaldehyde prior to addition to the culture wells. After 48 h of co-culture, the supernatants were harvested and analysed by ELISA to assess levels of IL-2 secretion. Results from representative clones are presented.
Antigen-specific T cell hybridomas were tested for their reactivity to the peptides, presented by fixed or not fixed VAVY or BM14 cells (=APCs). 5×10^4 cells from the individual clones were cultured with 25 μg/ml peptide and 5×10^4 fixed or fresh APCs. To fixate APCs, cells were incubated with 0.5% paraformaldehyde (Merck, Darmstadt, Germany) (pH7) for 5 min at room temperature (RT). The fixation reaction was stopped by adding 0.4M glycine (Sigma-Aldrich) and washing the cells in RPMI-10% FCS. Additionally, reactivity towards human TSHR-ECD protein (Chesapeake-PERL, Savage, Md., USA) was measured to identify epitopes. After 48 h, antigen-induced IL-2 production was measured by ELISA.

[6] = co-medication MMI 500 μg daily + ATX-GD-459 15 nmol

For `Cn1cc[nH]c1=S` [MMI, methimazole], the “effect on anti-TSHR antibody levels, MMI study” value ([1]; MMI 500 μg daily s.c. osmotic pump, 10^9 Ad-TSHR) was “had no effect”, the “effect on anti-TSHR IgG isotypes, MMI study” value ([1]; MMI 500 μg daily, 10^9 Ad-TSHR) was “had no effect” and the “changes in anti-TSHR IgG levels, model validation” value ([1]; MMI 50 or 500 μg/mouse/day s.c. pump for 4 weeks, Ad-TSHR week 0 and 3) was “no changes”. The “effect on antibody reducing capability of ATX-GD-459 (IgG isotypes), MMI study” value [1, 6] was “did not affect”, the “influence on antibody reducing capability of ATX-GD-459 (total IgG), MMI study” value [1, 6] was “did not influence” and the “effect on TSHR-specific splenocyte proliferation, MMI co-medication study” value [2] was “significant reduction”. For the same compound, the “T4 levels, MMI 50 μg daily, model validation” value (Total thyroxine (T4); 50 μg dose) was “only showed a trend towards reduced T4 levels”, the “T4 levels, MMI 500 μg daily, model validation” value (Total thyroxine (T4); daily dose of 500 μg, both at 2 and 4 weeks after first immunisation) was “significantly reduced” and the “effect on serum T4 levels, MMI co-medication study” value (Total thyroxine (T4); week 5, MMI 500 μg daily, ATX-GD-459 15 nmol top dose, 10^9 Ad-TSHR) was “significantly reduced”.

With `CC(C)NCC(O)COc1cccc2ccccc12` (centres unmarked) [propranolol, Propranolol hydrochloride] the “plasma levels of propranolol” value [3] was “confirms pharmacological dose” and the “Total T4 levels, propranolol co-medication study” value (Total thyroxine (T4); week 5, propranolol 10 mg/kg/day IP, ATX-GD-459 15 nmol, 10^10 Ad-TSHR) was “not affected”.

With “GLKMFPDLTKVYSTD (H-GLKMFPDLTKVYSTD-NH2) [Peptide 9B-N, TSHR peptide]” the “reduction of TSHR-induced T cell proliferation, LN samples” value [4] was 33% and the “reduction of TSHR-induced T cell proliferation, spleen samples” value [4] was 41%.

In the case of “KKGNLPNISRIYVSIDVTGKK (H-KKGNLPNISRIYVSIDVTGKK-NH2) [RNB-4K-GKK, modified TSHR apitope peptide]”, the “apitope status (presentation by fixed APCs, IL-2 secretion)” value [5] is reported as “confirmed to be apitopes”.

In the case of “KKKKYVSIDVTLQQLESHKKK (H-KKKKYVSIDVTLQQLESHKKK-NH2) [Peptide 5D-K1, modified TSHR apitope peptide]”, the “reduction of TSHR-induced T cell proliferation, LN samples” value [4] is reported as 60%, the “reduction of TSHR-induced T cell proliferation, spleen samples” value [4] is reported as 43% and the “apitope status (presentation by fixed APCs, IL-2 secretion)” value [5] is reported as “confirmed to be apitopes”.
